Our source for the Ki and IC50 values is ChEMBL document CHEMBL5113375, “Development of Mcl-1 inhibitors for cancer therapy” (Eur J Med Chem, 2021).

What is called Ki is the equilibrium dissociation constant of an inhibitor or competing ligand from its target. One may read the IC50 as the concentration that gives 50% inhibition. Higher therefore signals lower potency.

MCL1-BAK1 complex, sequence (Q07820 whole entry): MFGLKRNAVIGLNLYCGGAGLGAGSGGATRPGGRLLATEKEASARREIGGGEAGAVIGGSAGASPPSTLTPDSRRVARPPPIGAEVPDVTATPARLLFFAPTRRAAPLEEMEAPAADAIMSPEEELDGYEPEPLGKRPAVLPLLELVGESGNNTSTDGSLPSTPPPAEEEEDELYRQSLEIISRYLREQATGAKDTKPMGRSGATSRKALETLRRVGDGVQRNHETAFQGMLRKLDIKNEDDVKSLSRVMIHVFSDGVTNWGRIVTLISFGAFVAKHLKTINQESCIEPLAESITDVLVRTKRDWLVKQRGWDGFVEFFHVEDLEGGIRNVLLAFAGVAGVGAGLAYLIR
MCL1-BAK1 complex, sequence (Q16611 whole entry, further chain): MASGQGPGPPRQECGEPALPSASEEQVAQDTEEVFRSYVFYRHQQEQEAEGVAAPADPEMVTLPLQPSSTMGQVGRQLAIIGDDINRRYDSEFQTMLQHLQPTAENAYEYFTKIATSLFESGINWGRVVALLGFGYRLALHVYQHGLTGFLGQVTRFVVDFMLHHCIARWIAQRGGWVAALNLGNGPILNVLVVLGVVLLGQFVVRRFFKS
BCL2/BCL2L11, sequence (P10415 whole entry): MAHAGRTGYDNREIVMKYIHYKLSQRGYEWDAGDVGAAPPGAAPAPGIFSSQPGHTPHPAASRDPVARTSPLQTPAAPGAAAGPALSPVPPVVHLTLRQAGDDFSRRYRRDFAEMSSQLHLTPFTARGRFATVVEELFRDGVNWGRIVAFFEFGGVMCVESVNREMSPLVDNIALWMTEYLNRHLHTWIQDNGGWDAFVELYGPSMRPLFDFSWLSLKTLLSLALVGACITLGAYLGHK
BCL2/BCL2L11, sequence (O43521 whole entry, further chain): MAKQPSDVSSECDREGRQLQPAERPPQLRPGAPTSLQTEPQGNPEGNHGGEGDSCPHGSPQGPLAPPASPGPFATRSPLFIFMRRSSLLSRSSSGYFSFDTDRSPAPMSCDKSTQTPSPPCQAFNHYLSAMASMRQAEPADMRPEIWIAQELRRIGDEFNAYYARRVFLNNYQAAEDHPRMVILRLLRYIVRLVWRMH
Induced myeloid leukemia cell differentiation protein Mcl-1, sequence (Q07820 whole entry): as the sequence (Q07820 whole entry) above

The first assay concerns the target MCL1-BAK1 complex (Homo sapiens, UniProt Q07820). Put plainly: Binding affinity to Mcl-1/Bak (unknown origin) assessed as inhibition constant by fluorescence polarization assay. Format: protein-complex assay.
Conditions: not given
(In general: Fluorescence polarisation rises when a labelled molecule tumbles more slowly, as on binding a larger partner.)
Consider `CC(C)COc1nc(Oc2ccccc2)ccc1C(=O)O`, for which the Ki is 261000 nM.
For the molecule `CC1=C[C@@H](/C=C(\C)c2ccc(C(=O)O)cc2)[C@]2(C(=O)O)C=C[C@@H](CCOC(=O)c3ccc(Oc4cccnc4)cc3)C[C@@H]2C1`, the inhibitory constant (Ki) is 153 nM.
As to `Cc1cc(OCCCS(=O)(=O)N2CC(C(=O)O)Cc3ccccc32)cc(C)c1Cl` (centres undefined), the Ki worked out at 7770 nM.

The next assay deals with Induced myeloid leukemia cell differentiation protein Mcl-1/Bcl-2-like protein 11 (Homo sapiens, UniProt Q07820). Put plainly: Inhibition of Mcl-1/Bim (unknown origin) by ELISA method. The format is protein assay.
Induced myeloid leukemia cell differentiation protein Mcl-1/Bcl-2-like protein 11, sequence (Q07820 whole entry): as above
Induced myeloid leukemia cell differentiation protein Mcl-1/Bcl-2-like protein 11, sequence (O43521 whole entry, further chain): as the sequence (O43521 whole entry, further chain) above
Conditions: not given
In general terms: An ELISA detects its analyte on a solid surface through an enzyme-linked reagent.
As to `N#CC1=C(NCCC(=O)CCCCC(=O)NCCCCCNc2cccc3c2C(=O)N(C2CCC(=O)NC2=O)C3=O)c2ccc(Sc3ccc(Br)cc3)c3cccc(c23)C1=O` (centres undefined), the midpoint of inhibition, the IC50, lay at 780 nM.
Same read-out and setting: the same measure for `N#CC1=C(NCCC(=O)CCCCC(=O)NCCOCCOCCNc2cccc3c2C(=O)N(C2CCC(=O)NC2=O)C3=O)c2ccc(Sc3ccc(Br)cc3)c3cccc(c23)C1=O` (centres undefined): 11800 nM.

A further assay has as its target Induced myeloid leukemia cell differentiation protein Mcl-1 (Homo sapiens, UniProt Q07820). The experiment in a line: Binding affinity to Mcl-1 (unknown origin) assessed as inhibition constant by fluorescence polarization assay.
Conditions: not given
In the case of `CCOC(=O)C1=C(C)N=c2s/c(=C\c3cn(Cc4ccc(-c5ccccc5)cc4)c4ccccc34)c(=O)n2C1c1ccccc1` (centres undefined), the inhibition constant Ki was determined as 200 nM.

A further assay deals with Induced myeloid leukemia cell differentiation protein Mcl-1/BH3-interacting domain death agonist (Homo sapiens, UniProt Q07820). The experiment in a line: Binding affinity to Mcl-1/Bid (unknown origin) assessed as inhibition constant by fluorescence polarization assay. The format is protein assay.
Induced myeloid leukemia cell differentiation protein Mcl-1/BH3-interacting domain death agonist, sequence (Q07820 whole entry, the tested form may be a part): as the sequence (Q07820 whole entry) above
Induced myeloid leukemia cell differentiation protein Mcl-1/BH3-interacting domain death agonist, sequence (P55957 whole entry, further chain, the tested form may be a part): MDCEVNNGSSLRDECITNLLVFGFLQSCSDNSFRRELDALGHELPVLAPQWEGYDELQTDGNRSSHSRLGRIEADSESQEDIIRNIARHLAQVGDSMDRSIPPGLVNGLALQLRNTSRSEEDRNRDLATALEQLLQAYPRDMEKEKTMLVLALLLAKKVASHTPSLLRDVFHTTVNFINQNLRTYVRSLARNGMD
Conditions: not given
`N#CC1=C(C#N)c2ccc(N3CCSCC3)c3cccc(c23)C1=O`: the Ki amounted to 58 nM.
As to `O=C(Nc1ccccc1)C1=CN=c2s/c(=C\c3cn(Cc4ccccc4)c4ccccc34)c(=O)n2[C@@H]1c1ccccc1`, the Ki was found to be 360 nM.
On to `COC(=O)C1=CN=c2s/c(=C\c3cn(Cc4ccccc4)c4ccccc34)c(=O)n2[C@H]1c1ccc(C(C)=O)cc1`, for which the Ki stood at 320 nM.
Take `CC1=C[C@@H](/C=C(\C)c2ccc(C(=O)O)cc2)[C@]2(C(=O)O)C=C[C@@H](CCOC(=O)c3ccc(Oc4cccnc4)cc3)C[C@@H]2C1`: the Ki came out at 106 nM.
Still for that read-out and setting: the same measure for `CCOC(=O)C1=CN=c2s/c(=C\c3cn(Cc4ccccc4)c4ccccc34)c(=O)n2[C@H]1c1cccc(C(C)=O)c1`: 740 nM; for `O=C(Nc1ccccc1)C1=CN=c2s/c(=C\c3cn(Cc4ccccc4)c4ccccc34)c(=O)n2[C@H]1c1ccccc1`: 2200 nM.
`CCOC(=O)C1=CN=c2s/c(=C\c3cn(Cc4ccccc4)c4ccccc34)c(=O)n2[C@@H]1c1cccc(C(C)=O)c1`: the Ki worked out at 290 nM.
Same read-out and setting: the figure for `COC(=O)C1=CN=c2s/c(=C\c3cn(Cc4ccccc4)c4ccccc34)c(=O)n2[C@@H]1c1ccc(C(C)=O)cc1` is 420 nM.

The target in another assay is BCL2/BID (Homo sapiens, UniProt P10415). Put plainly: Binding affinity to Bcl-2 /Bid (unknown origin) assessed as inhibition constant by fluorescence polarization assay. The format is protein assay.
BCL2/BID, sequence (P10415 whole entry): as the sequence (P10415 whole entry) above
BCL2/BID, sequence (P55957 whole entry, further chain): as the sequence (P55957 whole entry, further chain, the tested form may be a part) above
Conditions: not given
For `N#CC1=C(C#N)c2ccc(N3CCSCC3)c3cccc(c23)C1=O`, the Ki is 310 nM.
Same read-out and setting: the figure for `O=C(Nc1ccccc1)C1=CN=c2s/c(=C\c3cn(Cc4ccccc4)c4ccccc34)c(=O)n2[C@@H]1c1ccccc1` is 1100 nM; for `COC(=O)C1=CN=c2s/c(=C\c3cn(Cc4ccccc4)c4ccccc34)c(=O)n2[C@H]1c1ccc(C(C)=O)cc1` it is 940 nM; for `CCOC(=O)C1=CN=c2s/c(=C\c3cn(Cc4ccccc4)c4ccccc34)c(=O)n2[C@H]1c1cccc(C(C)=O)c1` it is 590 nM.
The same measure, in the same setting: the figure for `O=C(Nc1ccccc1)C1=CN=c2s/c(=C\c3cn(Cc4ccccc4)c4ccccc34)c(=O)n2[C@H]1c1ccccc1` is 810 nM.
`CCOC(=O)C1=CN=c2s/c(=C\c3cn(Cc4ccccc4)c4ccccc34)c(=O)n2[C@@H]1c1cccc(C(C)=O)c1`: the Ki was found to be 540 nM.
On the same count and under the same terms, the same measure for `COC(=O)C1=CN=c2s/c(=C\c3cn(Cc4ccccc4)c4ccccc34)c(=O)n2[C@@H]1c1ccc(C(C)=O)cc1`: 1000 nM.

Tested on in a further assay: not listed separately
The experiment in a line: Inhibition of Mcl-1 (172 - 327 residues)/Noxa (unknown origin) by fluorescence polarization assay. Further details: species or system Homo sapiens.
Conditions: not given
On to `Cc1ccc(-c2ccc(C(=O)O)c(NS(=O)(=O)c3ccc(Oc4ccccc4)cc3)c2)c2ccccc12`, for which the IC50 is 500 nM.
Still for that read-out and setting: the figure for `Cc1ccc(-c2ccc(C(=O)O)c(NS(=O)(=O)c3ccc(OCCCN4CCOCC4)cc3)c2)c2ccccc12` is 60 nM; for `Cc1ccc(-c2ccc(C(=O)O)c(NS(=O)(=O)c3ccc(OCCn4cccn4)cc3)c2)c2ccccc12` it is 30 nM.
On the same count and under the same terms, the same measure for `Cc1ccc(-c2ccc(C(=O)O)c(NS(=O)(=O)c3ccccc3)c2)c2ccccc12`: 400 nM; for `C=C(c1ccc(S(=O)(=O)Nc2cc(-c3ccc(C)c4ccccc34)ccc2C(=O)O)cc1)C(C)C`: 80 nM.

The target in another assay is Bcl-xL/Bcl-2-like protein 11 (Homo sapiens, UniProt Q07817). Put plainly: Binding affinity to Bcl-xL/Bim (unknown origin) assessed as inhibition constant by fluorescence polarization assay. The format is protein assay.
Bcl-xL/Bcl-2-like protein 11, sequence (Q07817 whole entry): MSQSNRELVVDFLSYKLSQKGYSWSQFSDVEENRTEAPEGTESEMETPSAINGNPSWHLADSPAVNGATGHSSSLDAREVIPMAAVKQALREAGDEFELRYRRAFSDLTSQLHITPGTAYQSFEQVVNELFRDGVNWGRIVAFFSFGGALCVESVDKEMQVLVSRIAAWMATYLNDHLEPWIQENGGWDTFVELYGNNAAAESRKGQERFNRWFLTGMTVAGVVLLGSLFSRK
Bcl-xL/Bcl-2-like protein 11, sequence (O43521 whole entry, further chain): as the sequence (O43521 whole entry, further chain) above
Conditions: not given
On to `O=C(Nc1ccccc1)C1=CN=c2s/c(=C\c3cn(Cc4ccccc4)c4ccccc34)c(=O)n2[C@@H]1c1ccccc1`, for which the Ki was 830 nM.
The same measure, in the same setting: the same measure for `COC(=O)C1=CN=c2s/c(=C\c3cn(Cc4ccccc4)c4ccccc34)c(=O)n2[C@H]1c1ccc(C(C)=O)cc1`: 280 nM.
Same read-out and setting: the figure for `CCOC(=O)C1=CN=c2s/c(=C\c3cn(Cc4ccccc4)c4ccccc34)c(=O)n2[C@H]1c1cccc(C(C)=O)c1` is 340 nM; for `O=C(Nc1ccccc1)C1=CN=c2s/c(=C\c3cn(Cc4ccccc4)c4ccccc34)c(=O)n2[C@H]1c1ccccc1` it is 1100 nM; for `CCOC(=O)C1=CN=c2s/c(=C\c3cn(Cc4ccccc4)c4ccccc34)c(=O)n2[C@@H]1c1cccc(C(C)=O)c1` it is 290 nM.
On the same count and under the same terms, the same measure for `COC(=O)C1=CN=c2s/c(=C\c3cn(Cc4ccccc4)c4ccccc34)c(=O)n2[C@@H]1c1ccc(C(C)=O)cc1`: 550 nM.

A further assay concerns the target BCL2/BCL2L11 (Homo sapiens, UniProt P10415). Put plainly: Inhibition of Bcl-2/Bim (unknown origin) by ELISA method. Format: protein assay.
Conditions: not given
In turn, `N#CC1=C(NCCC(=O)CCCCC(=O)NCCCCCNc2cccc3c2C(=O)N(C2CCC(=O)NC2=O)C3=O)c2ccc(Sc3ccc(Br)cc3)c3cccc(c23)C1=O` (centres undefined) returned an IC50 of 540 nM.
The same measure, in the same setting: the figure for `N#CC1=C(NCCC(=O)CCCCC(=O)NCCOCCOCCNc2cccc3c2C(=O)N(C2CCC(=O)NC2=O)C3=O)c2ccc(Sc3ccc(Br)cc3)c3cccc(c23)C1=O` (centres undefined) is 4940 nM.

Tested on in another assay: not listed separately
The experiment in a line: Cytotoxicity against human MOLP8 cells by caspase-3/7 activation. Format: functional, cell-based. As to conditions: MOLP-8.
In turn, `CCc1nn(C)c(CC)c1-c1cccc2c(CCCOc3cccc4ccccc34)c(C(=O)O)n(CCN3CCOCC3)c12` yielded an IC50 of 350 nM.
The same measure, in the same setting: the figure for `CC(=O)c1cc(OCc2nn(C)c(C)c2-c2cccc3c(CCCOc4cccc5ccccc45)c(C(=O)O)[nH]c23)ccc1B(O)O` is 170 nM; for `Cc1c(-c2cccc3c(CCCOc4cccc5ccccc45)c(C(=O)O)[nH]c23)c(COc2ccc(B(O)O)cc2)nn1C` it is greater than 11000 nM.
On the same count and under the same terms, the same measure for `Cc1c(-c2cccc3c(CCCOc4cccc5ccccc45)c(C(=O)O)[nH]c23)c(COc2ccc(B(O)O)c(C=O)c2)nn1C`: 460 nM.
Still for that read-out and setting: the figure for `Cc1c(-c2cccc3c(CCCOc4cccc5ccccc45)c(C(=O)O)n(C)c23)c(COc2ccc(B(O)O)c(C=O)c2)nn1C` is 75 nM.
